Patent US6376666B1 (Nauchno-Issledovatelsky Institut Farmakologii Rossiiskoi …, priority 1994, dated 2002)

Experiments:
Type in all cases: in vivo
C57B1/6 mice = assay: open-field test, C57B1/6 mice (active type of emotional-stress reaction); details: i.p., doses that activate Balb/c mice
Excerpt: (§1) The main point of this approach consists in comparative analysis of the behavioural effects of tested compounds in two inbred strains of mice Balb/c and C57B1/6 with different hereditary types of emotional-stress reactions (ESR). The anxiolytic effect was estimated as the activation of the locomotor activity of animals with “passive” type of ESR (Balb/c mice). The main index describing the sedative properties of tested drugs was the inhibition of the locomotor activity of mice with “active” type of ESR (C57B1/6 strain). The anxioselectivity was evaluated according to coincidence of doses range which activated or inhibited the behavior of mice of different strains. Earlier this approach has been successfully used for estimation of anxioselective activity of such known drugs as phenazepam [Seredenin S. B. et al., Bull.Exp.Biol.Med., 1979, v.88, N7, p.38; Seredenin S. B. et al., Ann.Inst.Super.Sanita, 1990, v.26, N1, p.81-88], mexidol [Seredenin S. B. et al., Khimiko-Farmatsevt.Zhurnal, 1987, N2, p.134; Vironina T. A., Seredenin S. B., Ann.Inst.Super.Sanita, 1988, v.24, N3, p.461-466] and gidazepam [Seredenin S. B. et al., in: “Gidazepam” Kiev, Naukova Dumka, 1992, p.92; Seredenin S. B., Blednov Yu. A., Phys.Chem.Biol.Med., 1993, v.1, N1, p.53-60].
(§2) Male C57B1/6 and Balb/c mice (“Stolbovaya” animal farm), weighing 20-22 g were used. The animals were housed in a separate animal room in groups of ten and maintained on 12 h light-dark cycle (light from 8.00 till 20.00) with free access to standard food and water during two weeks before experiment. Testing was performed between 9.00 and 13.00. Every used compound was administered intraperitoneally in water solutions 30 min before testing (0,1 ml solution per 10 g of weight). The “open-field” apparatus consisted of cylinder closed from one end, illuminated by four 75 W lamps fixed to the walls 100 cm above the floor. The “open-field” apparatus was 100 cm in diameter and white-painted; the floor was marked with 3 black circles and some radial lines divided the floor into 16 peripheral and 8 central segments. 30 min after injection each animal was placed in the same peripheral square on the floor for 3 min of testing after 1 min exposure in the dark chamber. The following behavior variables were recorded: 1) the number of crossings in the peripheral area (peripheral activity); 2) the number of crossings in the central segments (central activity); 3) the number of rearings (vertical activity); 4) the emotionality was measured as the number of defecations during the test. The sum of all types of locomotor activity was marked as total activity. The t-Student test was used for statistical analysis.

outbred male rats = assay: conflict Vogel test (punished licking of water); details: M ± mx
Description: The study of anxiolytic activity of chosen compounds was carried out in the experiments with outbred male rats weighing 180-200 g in standard conflict Vogel' procedure [Voronina T. A. et al., in: “Phenazepam”, Naukova Dumka, Kiev, 1982, p.89, 93, 146]. The main aim of the initial step of experiments was the training of rats to develop the feeling of thirst with following experience of water licking from bottle in the experimental chamber. The animals were deprived of water for 24 hours and were placed in the test chamber for 5-min adaptation period during which they had free access to the drinking bottle. After another 24 h deprivation period the rats were placed again in the test chamber and were allowed to drink water for 5 sec. Immediately afterwards drinking attempts were punished by electric shock (0,5 mA). Under this collision of drinking and protective reflexes the extremal situation was developed. In this situation the anxiety of punishment prevented the licking process. The number of shocks received throughout a 5-min experimental session was recorded.

male outbred mice = assay: potentiation of sleep induced by sodium thiopental
Description: The possible hypnotic effects of choosen drugs was estimated according to method of potentiation of sleep induced by sodium thiopental. The male outbred mice weighing 20-25 g were injected i.p. with sodium thiopental at dose of 70 mg/kg. Two parameters were estimated: latent time of sleeping and duration of sleep. The used compounds were administered i.p. 30 min prior injection of sodium thiopental.

outbred male mice = assay: rotarod test (myorelaxant activity); details: cut-off 120 sec
Description: The myorelaxant activity of choosen compounds were studied in the outbred male mice weighing 22-25 g in rotarod test [Voronina T. A. et al., in: “Phenazepam”, Naukova Dumka, Kiev, 1982, p.145]. The animals were placed on the horizontal rotarod (D=2 cm) calibrated for a fixed speed of 4 rpm. According to the rotarod experimental protocol, normal motor coordination was defined by the ability of the animals to remain on the rotarod for an arbitrarily selected time of 120 sec.

Balb/c mice = assay: open-field test, Balb/c mice (passive type of emotional-stress reaction); parameters: key to Total activity: sum of all locomotor activity counts (crossings + rearings) in 3 min; details: for Number of defecations / Peripheral activity (crossings) / Total activity / Central activity (crossings) / Vertical activity (rearings): M ± mx; for effect on the behavior (locomotor activity) of Balb/c mice in open-field test, in words: i.p., screening
Excerpt: as §1, §2

[1] = 0.5 mg/kg i.p. 30 min before thiopental 70 mg/kg i.p.
[2] = 1.0 mg/kg i.p. 30 min before thiopental 70 mg/kg i.p.
[3] = 5.0 mg/kg i.p. 30 min before thiopental 70 mg/kg i.p.
[4] = 10.0 mg/kg i.p. 30 min before thiopental 70 mg/kg i.p.

With `C=CCSc1nc2ccc(OCC)cc2[nH]1` [IV, 2-Allylthio-5-ethoxybenzimidazole] the “effect on locomotor activity of C57B1/6 mice in open-field test, in words” value (C57B1/6 mice) was “without any changes in locomotor activity”, the “number of punished lickings (shocks received in 5-min session)” value (from here on “number of punished lickings”) (outbred male rats; 1.0 mg/kg i.p.) was 29.7 ± 5.3 and the “number of punished lickings” value (outbred male rats; 5.0 mg/kg i.p.) was 31.0 ± 5.6. The “number of punished lickings” value (outbred male rats; 10.0 mg/kg i.p.) was 35.8 ± 7.8, the “number of punished lickings” value (outbred male rats; 20.0 mg/kg i.p.) was 62.3 ± 19.5 and the “duration of sleep after sodium thiopental” value (from here on “duration of sleep”) (male outbred mice; [1]) was 42.8 ± 13.5 min. The “latent time of sleep after sodium thiopental” value (from here on “latent time of sleep”) (male outbred mice; [1]) was 3.0 ± 0.3 s, the “duration of sleep” value (male outbred mice; [2]) was 32.5 ± 7.9 min and the “latent time of sleep” value (male outbred mice; [2]) was 2.7 ± 0.3 s. For the same molecule, the “duration of sleep” value (male outbred mice; [3]) was 50.7 ± 11.0 min, the “latent time of sleep” value (male outbred mice; [3]) was 2.8 ± 0.3 s and the “duration of sleep” value (male outbred mice; [4]) was 45.1 ± 10.6 min. The “latent time of sleep” value (male outbred mice; [4]) was 2.5 ± 0.1 s, the “time of remaining on the rotarod” value (outbred male mice; 0.1 mg/kg) was 120 + 0 sec and the “time of remaining on the rotarod” value (outbred male mice; 1.0 mg/kg) was 120 + 0 sec. The “time of remaining on the rotarod” value (outbred male mice; 5.0 mg/kg) was 120 + 0 sec, the “time of remaining on the rotarod” value (outbred male mice; 10.0 mg/kg) was 120 + 0 sec and the “time of remaining on the rotarod” value (outbred male mice; 20.0 mg/kg) was 120 + 0 sec. For the same molecule, the Number of defecations (Balb/c mice; 0.1 mg/kg i.p.) was 0.6 ± 0.5, the “Peripheral activity (crossings)” value (Balb/c mice; 0.1 mg/kg i.p.) was 12.6 ± 2.6 and the Total activity (Balb/c mice; 0.1 mg/kg i.p.) was 12.6 ± 2.6. The “Peripheral activity (crossings)” value (Balb/c mice; 1.0 mg/kg i.p.) was 11.4 ± 2.3, the Total activity (Balb/c mice; 1.0 mg/kg i.p.) was 11.4 ± 2.3 and the Number of defecations (Balb/c mice; 5.0 mg/kg i.p.) was 1.7 ± 0.8. For the same molecule, the “Peripheral activity (crossings)” value (Balb/c mice; 5.0 mg/kg i.p.) was 13.6 ± 3.5, the Total activity (Balb/c mice; 5.0 mg/kg i.p.) was 13.6 ± 3.5 and the Number of defecations (Balb/c mice; 10.0 mg/kg i.p.) was 3.0 ± 0.7. The “Peripheral activity (crossings)” value (Balb/c mice; 10.0 mg/kg i.p.) was 9.5 ± 1.9, the Total activity (Balb/c mice; 10.0 mg/kg i.p.) was 9.5 ± 1.9 and the Number of defecations (Balb/c mice; 20.0 mg/kg i.p.) was 2.5 ± 0.7. The “Peripheral activity (crossings)” value (Balb/c mice; 20.0 mg/kg i.p.) was 8.9 ± 2.0, the Total activity (Balb/c mice; 20.0 mg/kg i.p.) was 8.9 ± 2.0 and the “effect on the behavior (locomotor activity) of Balb/c mice in open-field test, in words” value (Balb/c mice) was “able to activate the behavior of Balb/c mice”.
With `Cc1cc2nc(SCCN3CCCCC3)[nH]c2cc1C` [XIV, 2-[2-(Piperidino)ethylthio]-5,6-dimethylbenzimidazole] the “effect on locomotor activity of C57B1/6 mice in open-field test, in words” value (C57B1/6 mice) was “without any changes in locomotor activity”, the “number of punished lickings” value (outbred male rats; 1.0 mg/kg i.p.) was 31.6 ± 7.6 and the “number of punished lickings” value (outbred male rats; 5.0 mg/kg i.p.) was 32.9 ± 5.8. The “number of punished lickings” value (outbred male rats; 10.0 mg/kg i.p.) was 36.0 ± 9.4, the “number of punished lickings” value (outbred male rats; 20.0 mg/kg i.p.) was 42.3 ± 10.8 and the “duration of sleep” value (male outbred mice; [1]) was 91.0 ± 17.8 min. The “latent time of sleep” value (male outbred mice; [1]) was 2.5 ± 0.5 s, the “latent time of sleep” value (male outbred mice; [2]) was 2.5 ± 0.2 s and the “duration of sleep” value (male outbred mice; [3]) was 86.4 ± 13.9 min. The “latent time of sleep” value (male outbred mice; [3]) was 2.2 ± 0.2 s, the “duration of sleep” value (male outbred mice; [4]) was 70.6 ± 9.0 min and the “latent time of sleep” value (male outbred mice; [4]) was 2.9 ± 0.4 s. The “time of remaining on the rotarod” value (outbred male mice; 0.1 mg/kg) was 120 + 0 sec, the “time of remaining on the rotarod” value (outbred male mice; 1.0 mg/kg) was 120 + 0 sec and the “time of remaining on the rotarod” value (outbred male mice; 5.0 mg/kg) was 120 + 0 sec. For the same molecule, the “time of remaining on the rotarod” value (outbred male mice; 10.0 mg/kg) was 120 + 0 sec, the “time of remaining on the rotarod” value (outbred male mice; 20.0 mg/kg) was 120 + 0 sec and the “Central activity (crossings)” value (Balb/c mice; 0.1 mg/kg i.p.) was 1.1 ± 0.7. For the same molecule, the Number of defecations (Balb/c mice; 0.1 mg/kg i.p.) was 1.3 ± 0.5, the “Peripheral activity (crossings)” value (Balb/c mice; 0.1 mg/kg i.p.) was 27.0 ± 6.3 and the Total activity (Balb/c mice; 0.1 mg/kg i.p.) was 28.2 ± 7.1. The “Vertical activity (rearings)” value (Balb/c mice; 0.1 mg/kg i.p.) was 0.1 ± 0.1, the “Central activity (crossings)” value (Balb/c mice; 0.5 mg/kg i.p.) was 4.7 ± 2.7 and the Number of defecations (Balb/c mice; 0.5 mg/kg i.p.) was 1.0 ± 0.4. For the same molecule, the “Peripheral activity (crossings)” value (Balb/c mice; 0.5 mg/kg i.p.) was 44.4 ± 9.2, the Total activity (Balb/c mice; 0.5 mg/kg i.p.) was 49.4 ± 10.7 and the “Vertical activity (rearings)” value (Balb/c mice; 0.5 mg/kg i.p.) was 0.3 ± 0.3. For the same molecule, the “Central activity (crossings)” value (Balb/c mice; 1.0 mg/kg i.p.) was 0.9 ± 0.8, the Number of defecations (Balb/c mice; 1.0 mg/kg i.p.) was 2.9 ± 0.7 and the “Peripheral activity (crossings)” value (Balb/c mice; 1.0 mg/kg i.p.) was 38.7 ± 4.8. For the same molecule, the Total activity (Balb/c mice; 1.0 mg/kg i.p.) was 39.7 ± 5.7, the “Vertical activity (rearings)” value (Balb/c mice; 1.0 mg/kg i.p.) was 0.1 ± 0.1 and the “Central activity (crossings)” value (Balb/c mice; 5.0 mg/kg i.p.) was 2.8 ± 1.8. For the same molecule, the Number of defecations (Balb/c mice; 5.0 mg/kg i.p.) was 0.7 ± 0.7, the “Peripheral activity (crossings)” value (Balb/c mice; 5.0 mg/kg i.p.) was 58.7 ± 7.2 and the Total activity (Balb/c mice; 5.0 mg/kg i.p.) was 61.3 ± 9.0. For the same molecule, the Number of defecations (Balb/c mice; 10.0 mg/kg i.p.) was 2.0 ± 0.9, the “Peripheral activity (crossings)” value (Balb/c mice; 10.0 mg/kg i.p.) was 67.8 ± 11.1 and the Total activity (Balb/c mice; 10.0 mg/kg i.p.) was 67.8 ± 11.1. For the same molecule, the “Central activity (crossings)” value (Balb/c mice; 20.0 mg/kg i.p.) was 3.4 ± 3.4, the Number of defecations (Balb/c mice; 20.0 mg/kg i.p.) was 0.1 ± 0.1 and the “Peripheral activity (crossings)” value (Balb/c mice; 20.0 mg/kg i.p.) was 17.3 ± 8.0. The Total activity (Balb/c mice; 20.0 mg/kg i.p.) was 20.8 ± 9.6, the “Vertical activity (rearings)” value (Balb/c mice; 20.0 mg/kg i.p.) was 0.1 ± 0.1 and the “effect on the behavior (locomotor activity) of Balb/c mice in open-field test, in words” value (Balb/c mice) was “able to activate the behavior of Balb/c mice”.
